These results are taken from patent US20120238599A1, “HETEROCYCLIC COMPOUNDS AS MEK INHIBITORS” (CHEMIZON, A DIVISION OF OPTOMAGIC CO., LTD., priority 2011, published 2012).

The structures appear in SMILES notation.

T1 sequence (Q02750 whole entry, species assumed): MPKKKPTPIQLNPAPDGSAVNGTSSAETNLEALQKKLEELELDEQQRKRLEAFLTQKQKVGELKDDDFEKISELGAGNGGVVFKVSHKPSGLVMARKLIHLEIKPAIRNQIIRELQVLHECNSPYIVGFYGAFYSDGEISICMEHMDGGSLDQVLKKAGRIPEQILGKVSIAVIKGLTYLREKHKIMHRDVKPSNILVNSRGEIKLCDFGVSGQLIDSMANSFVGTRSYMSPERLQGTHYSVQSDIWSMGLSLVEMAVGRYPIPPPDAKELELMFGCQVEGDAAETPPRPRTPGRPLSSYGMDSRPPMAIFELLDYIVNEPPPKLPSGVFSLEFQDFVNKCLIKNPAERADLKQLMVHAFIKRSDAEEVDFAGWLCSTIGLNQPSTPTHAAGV

One test addresses T1, Mek1 (Homo sapiens, UniProt Q02750).
T1 construct: purchased Millipore
Briefly: Mek1 kinase assay (LANCE), enzymatic activity. It is filed as biochemical. Particulars: Mek1 0.25 nM, 50 μM ATP, 2 nM inactive Erk1, 90 min at 23° C. On the procedure: A Mek1 kinase assay (LANCE, PerkinElmer) was developed for supporting compound profiling and lead optimization. […] Then the phosphorylated Erk1 was able to phosphorylate ULight™-MBP peptide (PerkinElmer). The phosphorylated peptide was detected by Europium-anti-phospho-MBP (PerkinElmer). […] After quenching the reaction, 2 nM Europium-anti-phospho-MBP was added to the reaction mixture and incubated for 60 min, followed by a detection using EnVision. The IC50 values were derived through a curve fitting using GraFit.
In general terms: In TR-FRET formats the signal depends on donor and acceptor labels being close together.
On to `Cn1c(Nc2ccc(I)cc2F)c(C(=O)NOCCO)c2scnc2c1=O`, for which the concentration for half-maximal inhibition (IC50) (as a rule, the point on the concentration scale where inhibition reaches its midpoint) was < 5000 nM.
For `Cn1c(Nc2ccc(I)cc2F)c(C(=O)NOC[C@H](O)CO)c2occc2c1=O`, the half-maximal inhibitory concentration (IC50) was < 100 nM.
Still for that read-out and setting: to `Cc1noc2c(C(=O)NOCCO)c(Nc3ccc(I)cc3F)n(C)c(=O)c12` belongs < 5000 nM; to `Cn1c(Nc2ccc(I)cc2F)c(C(=O)NOCCO)c2occc2c1=O`, < 100 nM.
On the same count and under the same terms, the figure for `Cc1nc2c(=O)n(C)c(Nc3ccc(I)cc3F)c(C(=O)NOCCO)c2o1` is < 1000 nM; for `Cc1coc2c(C(=O)NOCCO)c(Nc3ccc(I)cc3F)n(C)c(=O)c12` it is < 1000 nM; for `Cn1c(Nc2ccc(I)cc2F)c(C(=O)NCCCO)c2occc2c1=O` it is < 5000 nM.
The same measure, in the same setting: to `Cn1c(Nc2ccc(I)cc2Cl)c(C(=O)NOCCO)c2occc2c1=O` belongs < 100 nM; to `Cn1c(Nc2ccc(I)cc2F)c(C(=O)NOCCO)c2sccc2c1=O`, < 1000 nM.
In the case of `COc1c(C(=O)NOCCO)c(Nc2ccc(I)cc2F)n(C)c(=O)c1C`, the IC50 is < 100 nM.

For the next test, the system named is MEK. Briefly: Cell-based mechanism assay in A375 cell line, MEK inhibition detected by reduced ERK phosphorylation (AlphaScreen SureFire). Particulars: A375 cell line (melanoma), phospho-ERK levels, compounds incubated 1 hour at 37° C. On the procedure:
To investigate whether a compound is able to inhibit the activity of MEK in cells, a mechanism-based assay using A375 cell line (melanoma) was developed. In this assay (AlphaScreen, PerkinElmer), inhibition of MEK was detected by reduced ERK phosphorylation. A375 cells were cultured in a tissue culture flask to 80% confluence in DMEM plus 10% fetal bovine serum. Cells were collected and plated onto 96 well culture plates at 3×10^4 cells/well. Plates were incubated overnight at 37° C. with 5% CO2 to allow cells to adhere. Compounds were added to the plates and incubated at 37° C. for 1 hour. After removing the medium, 100 μl of cell lysis buffer were added to each well and 4 μl of cell lysate were transferred into a 384 well white Proxiplate (PerkinElmer). The phospho-ERK levels were determined by following the standard protocol supplied with the PerkinElmer SureFire Phospho-ERK 1/2 Assay Kit®. Plates were read out by EnVision (PerkinElmer). The data were analyzed using GraphPad Prism.
In general terms: Alpha assays give light when donor and acceptor beads are brought close together.
Take `Cn1c(Nc2ccc(I)cc2F)c(C(=O)NOCCO)c2scnc2c1=O`: the concentration for half-maximal inhibition (IC50) was < 5000 nM.
Take `Cn1c(Nc2ccc(I)cc2F)c(C(=O)NOC[C@H](O)CO)c2occc2c1=O`: the IC50 was < 100 nM.
In the case of `Cc1noc2c(C(=O)NOCCO)c(Nc3ccc(I)cc3F)n(C)c(=O)c12`, the IC50 was < 100 nM.
Still for that read-out and setting: to `Cn1c(Nc2ccc(I)cc2F)c(C(=O)NOCCO)c2occc2c1=O` belongs < 100 nM.
Consider `Cc1nc2c(=O)n(C)c(Nc3ccc(I)cc3F)c(C(=O)NOCCO)c2o1`, for which the IC50 was < 100 nM.
Regarding `Cc1coc2c(C(=O)NOCCO)c(Nc3ccc(I)cc3F)n(C)c(=O)c12`, the IC50 was < 100 nM.
Take `Cn1c(Nc2ccc(I)cc2F)c(C(=O)NCCCO)c2occc2c1=O`: the IC50 is < 100 nM.
On to `Cn1c(Nc2ccc(I)cc2Cl)c(C(=O)NOCCO)c2occc2c1=O`, for which the IC50 is < 100 nM.
Still for that read-out and setting: to `Cn1c(Nc2ccc(I)cc2F)c(C(=O)NOCCO)c2sccc2c1=O` belongs < 100 nM.
As to `COc1c(C(=O)NOCCO)c(Nc2ccc(I)cc2F)n(C)c(=O)c1C`, the IC50 was < 100 nM.
